Data on 5 compounds can be found in US9708314B2, “Heterocyclic amide compound” (NISSAN CHEMICAL INDUSTRIES, LTD., priority 2013, dated 2017).

Structures are written as SMILES.

Holding throughout (format): in vivo
One assay relates to Chenopodium album. Briefly: Test Example 4: herbicidal effect by application to foliage (diluvial soil, plastic box). The following applies: for O: herbicidal effect on Chenopodium album: application to foliage, application herbicide amount 320 g/ha; for O (Chenopodium album) herbicidal effect grade: Application herbicide amount 320 g/ha, foliage application. In outline: (§1)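 Greenhouse plants (25° C. to 30° C., 14 d, diluvial soil) receive a foliar spray of water-diluted emulsifiable formulation at defined g/ha. Grading after 3 weeks uses a six-step herbicidal-ratio scale, with 4 covering 70% to <90% and 1 covering 5% to <20%.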

A further assay concerns Digitaria ciliaris. The description is as above. The conditions noted are these: for F: herbicidal effect on Digitaria ciliaris: application to foliage, application herbicide amount 320 g/ha; for F (Digitaria ciliaris) herbicidal effect grade: Application herbicide amount 320 g/ha, foliage application. Put shortly:
as §1

Another assay concerns Apera spica-venti. Described as above. The conditions noted are these: for L: herbicidal effect on Apera spica-venti.: application to foliage, application herbicide amount 320 g/ha; for L (Apera spica-venti.) herbicidal effect grade: Application herbicide amount 320 g/ha, foliage application. Put shortly:
as §1

Another assay deals with Setaria viridis. Described as above. The following applies: for G: herbicidal effect on Setaria viridis: application to foliage, application herbicide amount 320 g/ha; for G (Setaria viridis) herbicidal effect grade: Application herbicide amount 320 g/ha, foliage application. Put shortly: as §1
In a further assay the test system is Amaranthus retroflexus. The description is as above. The following applies: for N: herbicidal effect on Amaranthus retroflexus: application to foliage, application herbicide amount 320 g/ha; for N (Amaranthus retroflexus) herbicidal effect grade: Application herbicide amount 320 g/ha, foliage application. In outline: as §1
The subject of a further assay is Alopecurus myosuroides. Described as above. The following applies: for J: herbicidal effect on Alopecurus myosuroides: application to foliage, application herbicide amount 320 g/ha; for J (Alopecurus myosuroides) herbicidal effect grade: Application herbicide amount 320 g/ha, foliage application. In outline:
as §1

For a further assay, the system named is Veronica persica. The description is as above. The conditions noted are these: for R: herbicidal effect on Veronica persica: application to foliage, application herbicide amount 320 g/ha; for R (Veronica persica) herbicidal effect grade: Application herbicide amount 320 g/ha, foliage application. Put shortly: as §1
In a further assay the test system is Stellaria media. The assay is described as above. The conditions noted are these: for P: herbicidal effect on Stellaria media: application to foliage, application herbicide amount 320 g/ha; for P (Stellaria media) herbicidal effect grade: Application herbicide amount 320 g/ha, foliage application. Put shortly:
as §1

The subject of a further assay is Abutilon theophrasti. The assay is described as above. The conditions noted are these: for M: herbicidal effect on Abutilon theophrasti: application to foliage, application herbicide amount 320 g/ha; for M (Abutilon theophrasti) herbicidal effect grade: Application herbicide amount 320 g/ha, foliage application. In outline:
as §1

A further assay has as its system Cyperus difformis. The experiment in a line: Test Example 3: herbicidal effect by application to foliage (Wagner pot, water depth 0.1-0.5 cm). The conditions noted are these: Nineteenth Table; application to foliage; application herbicide amount 320 g/ha. In outline:
(§2)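 Grading uses six bands of herbicidal ratio, from 0 (≤5%, almost no effect) to 5 (≥90%, almost completely withered). Treatment was a stem-and-leaf spray of diluted emulsion at a fixed g/ha on 14-day-old plants; evaluation after three weeks.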

A further assay deals with Leptochloa chinensis. The assay is described as above. The following applies: Nineteenth Table; application to foliage; application herbicide amount 320 g/ha. In outline:
as §2

Assay [1] relates to Echinochloa crus-galli var. crus-galli. The assay is described as above. The following applies: Nineteenth Table; application to foliage; application herbicide amount 320 g/ha. Put shortly:
as §2

Regarding `COc1ccc(-c2nnc3c(C(=O)Nc4nnnn4C)ccc(C(F)(F)F)n23)cc1` [2-011], the “O: herbicidal effect on Chenopodium album” value (“O: herbicidal effect” below) with Chenopodium album was 5 (Herbicidal ratio of 90% or more (almost completely withered)). The “F: herbicidal effect on Digitaria ciliaris” value (from here on “F: herbicidal effect”) in the assay on Digitaria ciliaris was 5 (Herbicidal ratio of 90% or more (almost completely withered)). The “L: herbicidal effect on Apera spica-venti.” value (“L: herbicidal effect” for short) in the assay on Apera spica-venti. was 3 (Herbicidal ratio of 40% or more and less than 70%). For the same compound, in the assay with Setaria viridis, the “G: herbicidal effect on Setaria viridis” value was 3 (Herbicidal ratio of 40% or more and less than 70%). Also, in the assay on Amaranthus retroflexus, the “N: herbicidal effect on Amaranthus retroflexus” value (“N: herbicidal effect” for short) is 5 (Herbicidal ratio of 90% or more (almost completely withered)). The “J: herbicidal effect on Alopecurus myosuroides” value (“J: herbicidal effect” for short) with Alopecurus myosuroides was 3 (Herbicidal ratio of 40% or more and less than 70%). For the same compound, in the assay with Veronica persica, the “R: herbicidal effect on Veronica persica” value was 5 (Herbicidal ratio of 90% or more (almost completely withered)). In addition, the “P: herbicidal effect on Stellaria media” value with Stellaria media is on record as 5 (Herbicidal ratio of 90% or more (almost completely withered)). Further, the “M: herbicidal effect on Abutilon theophrasti” value (“M: herbicidal effect” for short) in the assay on Abutilon theophrasti is 5 (Herbicidal ratio of 90% or more (almost completely withered)). In addition, the “E (herbicidal effect grade)” value in the assay with Cyperus difformis is on record as 5 (Herbicidal ratio of 90% or more (almost completely withered)). Also, the “D (herbicidal effect grade)” value in the assay with Leptochloa chinensis is 5 (Herbicidal ratio of 90% or more (almost completely withered)). For the same compound, in [1], the “H (herbicidal effect grade)” value was 5 (Herbicidal ratio of 90% or more (almost completely withered)).

For the compound `CCSc1nnc2c(C(=O)Nc3nnnn3C)ccc(C(F)(F)F)n12` [2-024], the “O: herbicidal effect” value with Chenopodium album is given as 5 (Herbicidal ratio of 90% or more (almost completely withered)). Also, the “F: herbicidal effect” value with Digitaria ciliaris is recorded as 5 (Herbicidal ratio of 90% or more (almost completely withered)). The “L: herbicidal effect” value in the assay with Apera spica-venti. is on record as 5 (Herbicidal ratio of 90% or more (almost completely withered)). For the same compound, the “G: herbicidal effect on Setaria viridis” value with Setaria viridis was 5 (Herbicidal ratio of 90% or more (almost completely withered)). The “N: herbicidal effect” value with Amaranthus retroflexus is reported as 5 (Herbicidal ratio of 90% or more (almost completely withered)). Besides, the “J: herbicidal effect” value with Alopecurus myosuroides is 3 (Herbicidal ratio of 40% or more and less than 70%). Besides, the “R: herbicidal effect on Veronica persica” value in the assay on Veronica persica was 5 (Herbicidal ratio of 90% or more (almost completely withered)). Further, in the assay with Stellaria media, the “P: herbicidal effect on Stellaria media” value is reported as 5 (Herbicidal ratio of 90% or more (almost completely withered)). Also, the “M: herbicidal effect” value in the assay with Abutilon theophrasti was 5 (Herbicidal ratio of 90% or more (almost completely withered)). In addition, in the assay with Cyperus difformis, the “E (herbicidal effect grade)” value was 5 (Herbicidal ratio of 90% or more (almost completely withered)). For the same compound, the “D (herbicidal effect grade)” value with Leptochloa chinensis is 5 (Herbicidal ratio of 90% or more (almost completely withered)). Further, the “H (herbicidal effect grade)” value in [1] is reported as 5 (Herbicidal ratio of 90% or more (almost completely withered)).

For `Cc1cc(-c2nnc3c(C(=O)Nc4nnnn4C)ccc(C(F)(F)F)n23)no1` [2-017], the “O: herbicidal effect” value in the assay with Chenopodium album is listed as 5 (Herbicidal ratio of 90% or more (almost completely withered)). Further, in the assay with Digitaria ciliaris, the “F: herbicidal effect” value was 5 (Herbicidal ratio of 90% or more (almost completely withered)). In addition, the “L: herbicidal effect” value in the assay on Apera spica-venti. was 4 (Herbicidal ratio of 70% or more and less than 90%). For the same compound, in the assay on Setaria viridis, the “G: herbicidal effect on Setaria viridis” value was 5 (Herbicidal ratio of 90% or more (almost completely withered)). The “N: herbicidal effect” value in the assay on Amaranthus retroflexus was 5 (Herbicidal ratio of 90% or more (almost completely withered)). In the assay with Alopecurus myosuroides, the “J: herbicidal effect” value was 3 (Herbicidal ratio of 40% or more and less than 70%). Moreover, the “R: herbicidal effect on Veronica persica” value in the assay on Veronica persica is recorded as 5 (Herbicidal ratio of 90% or more (almost completely withered)). Further, the “P: herbicidal effect on Stellaria media” value in the assay with Stellaria media is 5 (Herbicidal ratio of 90% or more (almost completely withered)). Moreover, in the assay with Abutilon theophrasti, the “M: herbicidal effect” value is 5 (Herbicidal ratio of 90% or more (almost completely withered)). Besides, the “E (herbicidal effect grade)” value with Cyperus difformis is given as 5 (Herbicidal ratio of 90% or more (almost completely withered)). In the assay with Leptochloa chinensis, the “D (herbicidal effect grade)” value is 5 (Herbicidal ratio of 90% or more (almost completely withered)). Further, the “H (herbicidal effect grade)” value in [1] is given as 5 (Herbicidal ratio of 90% or more (almost completely withered)).

In the case of `Cc1nnc(NC(=O)c2ccc(C(F)(F)F)n3c(SCc4ccccc4)nnc23)o1` [1-113], in the assay on Chenopodium album, the “O (Chenopodium album) herbicidal effect grade” value was 5 (Herbicidal ratio of 90% or more (almost completely withered)). Also, in the assay with Digitaria ciliaris, the “F (Digitaria ciliaris) herbicidal effect grade” value was 1 (Herbicidal ratio of 5% or more and less than 20%). In the assay on Apera spica-venti., the “L (Apera spica-venti.) herbicidal effect grade” value is on record as 0 (Herbicidal ratio of 5% or less (almost no effect)). Moreover, the “G (Setaria viridis) herbicidal effect grade” value in the assay on Setaria viridis is on record as 0 (Herbicidal ratio of 5% or less (almost no effect)). For the same compound, the “N (Amaranthus retroflexus) herbicidal effect grade” value with Amaranthus retroflexus was 3 (Herbicidal ratio of 40% or more and less than 70%). In addition, the “J (Alopecurus myosuroides) herbicidal effect grade” value in the assay on Alopecurus myosuroides is 0 (Herbicidal ratio of 5% or less (almost no effect)). Also, the “R (Veronica persica) herbicidal effect grade” value in the assay with Veronica persica was 3 (Herbicidal ratio of 40% or more and less than 70%). In the assay with Stellaria media, the “P (Stellaria media) herbicidal effect grade” value was 4 (Herbicidal ratio of 70% or more and less than 90%). The “M (Abutilon theophrasti) herbicidal effect grade” value in the assay on Abutilon theophrasti is 1 (Herbicidal ratio of 5% or more and less than 20%). Besides, in the assay on Cyperus difformis, the “E (herbicidal effect grade)” value was 3 (Herbicidal ratio of 40% or more and less than 70%). The “D (herbicidal effect grade)” value in the assay on Leptochloa chinensis is 3 (Herbicidal ratio of 40% or more and less than 70%). Further, the “H (herbicidal effect grade)” value in assay [1] was 4 (Herbicidal ratio of 70% or more and less than 90%).

For `CCN(C)c1nnc2c(C(=O)Nc3nnc(C)o3)ccc(C(F)(F)F)n12` [1-134], the “O (Chenopodium album) herbicidal effect grade” value in the assay on Chenopodium album is 5 (Herbicidal ratio of 90% or more (almost completely withered)). The “F (Digitaria ciliaris) herbicidal effect grade” value with Digitaria ciliaris was 4 (Herbicidal ratio of 70% or more and less than 90%). In addition, the “L (Apera spica-venti.) herbicidal effect grade” value in the assay on Apera spica-venti. is 1 (Herbicidal ratio of 5% or more and less than 20%). Moreover, the “G (Setaria viridis) herbicidal effect grade” value in the assay on Setaria viridis is 3 (Herbicidal ratio of 40% or more and less than 70%). The “N (Amaranthus retroflexus) herbicidal effect grade” value in the assay with Amaranthus retroflexus was 3 (Herbicidal ratio of 40% or more and less than 70%). Also, the “J (Alopecurus myosuroides) herbicidal effect grade” value in the assay with Alopecurus myosuroides is 1 (Herbicidal ratio of 5% or more and less than 20%). In addition, the “R (Veronica persica) herbicidal effect grade” value with Veronica persica is 4 (Herbicidal ratio of 70% or more and less than 90%). Also, in the assay with Stellaria media, the “P (Stellaria media) herbicidal effect grade” value was 4 (Herbicidal ratio of 70% or more and less than 90%). Besides, the “M (Abutilon theophrasti) herbicidal effect grade” value in the assay with Abutilon theophrasti is 4 (Herbicidal ratio of 70% or more and less than 90%). Moreover, in the assay with Cyperus difformis, the “E (herbicidal effect grade)” value was 2 (Herbicidal ratio of 20% or more and less than 40%). Also, in the assay with Leptochloa chinensis, the “D (herbicidal effect grade)” value is 4 (Herbicidal ratio of 70% or more and less than 90%). Also, in assay [1], the “H (herbicidal effect grade)” value is 5 (Herbicidal ratio of 90% or more (almost completely withered)).
